{"source": "patent EP4368198A1", "about": "“COMPOSITION FOR DELIVERING A PROTEIN OR A POLYPEPTIDE TO A EUKARYOTIC CELL” (Klinikum der Universität München, priority 2022, dated 2024)", "origin": "cited, not measured here", "details": "normalized, most hydrophobic residue 100, glycine 0, Monera et al. 1995"}
{"smiles": "O=C(O)[C@@H]1CCCN1", "note": "[Proline (pro), Proline]", "values": [{"measurement": "hydrophobicity index At pH 7", "result": "-46 (used pH 2)"}]}
